In US20080146599A1, “Pyrimidine Compounds Having Tie-2 (Tek) Inhibitory Activity” (ASTRAZENECA AB, priority 2005, published 2008):
pIC50: −log10 of the molar value. Where two headings read alike, the source gives them in different places.

Assays:
[1] = molecular target: T1, Tie2 receptor tyrosine kinase (Homo sapiens, UniProt Q02763); experiment: In vitro receptor tyrosine kinase inhibition assay (ELISA based microtitre plate assay); type: biochemical; details: recombinant human Tie2 kinase domain lysate, ATP 5 micromolar or Km; read-out: IC50 (μM) Test (a): Inhibition of Tie2 receptor tyrosine kinase in vitro
T1 construct: consist of only the intracellular portion C-terminal portion of the respective receptor, within which is found the kinase domain; made in house; host or cells: baculovirus/Sf21 insect cells (or alternative equivalent); cleared lysate used, not purified protein
T1 sequence (Q02763 770-1124 limits assumed): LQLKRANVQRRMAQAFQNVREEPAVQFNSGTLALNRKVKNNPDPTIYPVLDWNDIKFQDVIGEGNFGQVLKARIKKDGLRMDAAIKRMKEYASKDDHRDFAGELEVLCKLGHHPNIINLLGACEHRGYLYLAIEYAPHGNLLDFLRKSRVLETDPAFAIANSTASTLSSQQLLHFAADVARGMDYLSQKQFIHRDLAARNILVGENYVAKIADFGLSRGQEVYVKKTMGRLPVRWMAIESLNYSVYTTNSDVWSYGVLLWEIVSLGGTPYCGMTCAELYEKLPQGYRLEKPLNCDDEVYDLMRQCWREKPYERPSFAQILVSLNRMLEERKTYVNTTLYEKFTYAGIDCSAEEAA
Description: Constitutive kinase activity of these recombinant proteins was determined by their ability to phosphorylate a synthetic peptide (made up of a random co-polymer of Glutamic Acid, Alanine and Tyrosine in the ratio of 6:3:1). […] Plates were washed in 50 mM HEPES pH 7.4 at room temperature to remove any excess unbound synthetic peptide.
The immobilised phospho-peptide product of the reaction was detected by immunological methods.
Kinase inhibition for a given compound was expressed as an IC50 value. […] The range of phosphorylation was calculated from the positive (vehicle plus ATP) and negative (vehicle minus ATP) control values.

Tie2 receptor = molecular target: T2, Tie2 receptor (Homo sapiens, UniProt Q02763); experiment: Cellular Tie2 autophosphorylation assay (Ang1 ligand stimulated); type: cell-based; details: for IC50: whole cells, for example EA.hy926/B3, Ang1 ligand stimulated, read-out: IC50 (μM) Test (b): Inhibition of autophosphorylation of Tie2 receptor tyrosine kinase
T2 construct: one can use natural cell lines or primary cells which are known to express the receptor of choice; endogenous in cells; host or cells: EA.hy926/B3 cells
T2 sequence (Q02763 23-1124): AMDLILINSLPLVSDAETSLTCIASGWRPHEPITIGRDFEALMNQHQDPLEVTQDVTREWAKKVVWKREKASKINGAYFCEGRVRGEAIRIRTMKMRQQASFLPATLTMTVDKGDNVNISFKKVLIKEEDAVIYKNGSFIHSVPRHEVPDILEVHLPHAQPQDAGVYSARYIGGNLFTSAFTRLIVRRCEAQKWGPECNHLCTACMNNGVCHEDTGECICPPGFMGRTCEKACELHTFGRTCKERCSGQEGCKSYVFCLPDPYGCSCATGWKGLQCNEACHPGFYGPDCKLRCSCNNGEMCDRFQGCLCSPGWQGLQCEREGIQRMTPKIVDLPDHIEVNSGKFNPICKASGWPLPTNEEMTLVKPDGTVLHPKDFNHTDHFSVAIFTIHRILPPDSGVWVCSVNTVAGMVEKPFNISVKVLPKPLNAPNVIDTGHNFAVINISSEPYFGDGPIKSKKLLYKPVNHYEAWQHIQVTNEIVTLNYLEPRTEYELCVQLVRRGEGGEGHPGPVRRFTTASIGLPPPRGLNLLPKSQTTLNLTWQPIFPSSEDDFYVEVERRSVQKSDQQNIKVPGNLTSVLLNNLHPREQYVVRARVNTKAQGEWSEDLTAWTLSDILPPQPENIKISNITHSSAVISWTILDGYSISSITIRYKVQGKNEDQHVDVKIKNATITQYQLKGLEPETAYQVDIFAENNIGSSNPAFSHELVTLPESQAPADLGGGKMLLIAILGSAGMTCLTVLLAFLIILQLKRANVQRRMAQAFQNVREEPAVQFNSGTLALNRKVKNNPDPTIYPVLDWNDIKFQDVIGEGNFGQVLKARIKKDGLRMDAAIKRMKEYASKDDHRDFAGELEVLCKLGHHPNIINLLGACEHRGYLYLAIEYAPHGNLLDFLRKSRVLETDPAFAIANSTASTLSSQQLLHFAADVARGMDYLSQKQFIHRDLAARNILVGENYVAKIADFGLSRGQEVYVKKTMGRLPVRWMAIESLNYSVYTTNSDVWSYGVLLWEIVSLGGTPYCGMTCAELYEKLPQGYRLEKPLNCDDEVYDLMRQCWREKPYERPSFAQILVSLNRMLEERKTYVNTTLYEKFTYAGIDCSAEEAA

In the case of Nc1ncnc(N)c1C#Cc1cccc(NS(=O)(=O)c2ccccc2Cl)c1 [Example 1, 2-chloro-N-{3-[(4,6-diaminopyrimidin-5-yl)ethynyl]phenyl}benzenesulfonamide], the IC50 [1] was 7.5 µM and the IC50 (Tie2 receptor) was 0.78 µM.
With Nc1ncnc(N)c1C#Cc1cccc(NS(=O)(=O)c2cccc(Cl)c2Cl)c1 [Example 3, 2,3-dichloro-N-{3-[(4,6-diaminopyrimidin-5-yl)ethynyl]phenyl}benzenesulfonamide] the IC50 [1] was 3.7 µM and the pIC50 (Tie2 receptor) was 6.54.
In the case of Nc1ncnc(N)c1C#Cc1cccc(NS(=O)(=O)c2cc(F)ccc2F)c1 [Example 6, N-{3-[(4,6-diaminopyrimidin-5-yl)ethynyl]phenyl}-2,5-difluorobenzenesulfonamide], the IC50 [1] was 0.4 µM and the IC50 (Tie2 receptor) was 0.34 µM.
